{"source": "patent US20040241648A1", "about": "“Phosphoribosyl pyrophosphate synthetase 1as herbicidal target” (priority 2000, published 2004)", "biological_target": "T1, Arabidopsis thaliana 5-phosphoribosyl-1-pyrophosphate synthetase 1 (Arabidopsis thaliana, UniProt Q42581)", "T1 construct": "His-tag (from vector pFastBacHTb); made in house; host or cells: Sf21 insect cells (recombinant baculovirus, pFASTBAC HTb-AtPrs1)", "T1 sequence (Q42581 50-403)": "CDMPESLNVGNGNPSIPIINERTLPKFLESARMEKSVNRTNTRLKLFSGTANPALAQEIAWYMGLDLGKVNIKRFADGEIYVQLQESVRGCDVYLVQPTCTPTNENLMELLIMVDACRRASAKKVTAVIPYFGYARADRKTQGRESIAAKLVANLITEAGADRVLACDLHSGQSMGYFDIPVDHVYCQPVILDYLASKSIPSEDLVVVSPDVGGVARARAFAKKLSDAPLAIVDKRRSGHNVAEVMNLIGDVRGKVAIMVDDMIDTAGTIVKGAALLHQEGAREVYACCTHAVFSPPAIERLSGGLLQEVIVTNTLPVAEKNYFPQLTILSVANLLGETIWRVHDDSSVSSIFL", "assay": "5-Phosphoribosyl-1-pyrophosphate synthetase 1 assay system (photometric, coupled enzyme, drop in NADH at 340 nm)", "type": "biochemical", "details": "0.5-5 mM inhibitor, recombinant enzyme from Sf21 insect cells, 18 μg total protein", "text": "To obtain active Arabidopsis thaliana 5-phosphoribosyl-1-pyrophosphate synthetase 1 for high-throughput screening methods, the Arabidopsis thaliana Prs1 fragment is obtained from vector pGEM-T AtPrs1 (FIG. 2) using the restriction enzymes BamHI and EcoRI (cleavage sites inserted via primers RBPRPP3 and RBPRPP4) and cloned into the identically cleaved transfer vector pFastBacHTb (GibcoBRL). The resulting construct pFASTBAC HTb-AtPrs1 is used in accordance with the manufacturer's instructions (GibcoBRL) for generating recombinant Baculovirus. This virus is employed in accordance with the manufacturer's instructions (GibcoBRL) for infecting Sf21 insect cells in order to generate active 5-phosphoribosyl-1-pyrophosphate synthetase 1 enzyme. The specific enzymatic phosphoribosyl-pyrophosphate synthetase 1 activity is measured photometrically after the cells have been sonicated. The following components are employed per 90 μl batch: […]\nAfter the cells had been sonicated in lysis buffer (50 mM NaH2PO4, 300 mM NaCl, pH 7.8), 18 μg of total protein are employed. […] What is measured is the drop in NADH at 340 nm."}
{"smiles": "Nc1ncnc2c1ncn2[C@@H]1O[C@H](COP(=O)(O)OP(=O)(O)OP(=O)(O)O)C[C@H]1O", "note": "[cordycepin-5′-triphosphate]", "values": [{"measurement": "inhibition of the enzymatic activity of the plant 5-phosphoribosyl-1-pyrophosphate synthetase 1", "value": "inhibits the enzymatic activity"}]}
